Measurements reported in the NIST ThermoML archive (doi:10.1021/je0502849).

Settings: Liquid, Pulse-echo method

CCC(C)C(C)C (stereo not drawn) [2,3-dimethylpentane]
speed of sound [m/s]
Settings	293.15 K	303.15 K	313.15 K	323.15 K	333.15 K	343.15 K	353.15 K	363.15 K	373.15 K
100 kPa	1149.5	1103.2	1061.2	1017.4	973.7	931	889.5	849.4	808.9
10000 kPa	1220.2	1178.6	1138	1099.7	1061.7	1022.5	986.1	950.4	914.8
20000 kPa	1284.8	1245.9	1207.8	1171.8	1136.5	1101.8	1067.4	1035.4	1003.1
30000 kPa	1342.3	1306.5	1270.7	1236.2	1203.1	1170.5	1138.8	1108.4	1079
40000 kPa	1396.2	1361.5	1327.2	1294.8	1263.1	1232	1201.8	1173.6	1145.4
50000 kPa	1445.3	1411.9	1379.5	1348.2	1317.7	1287.5	1259.9	1232.3	1205.1
60000 kPa	1491.9	1458.5	1428.2	1397.8	1368.8	1339.8	1312.3	1286.2	1260.3
70000 kPa	1535.2	1503.4	1473.4	1444.3	1416	1388.3	1361.7	1336.7	1311.6
80000 kPa	1576.5	1545.5	1516.6	1488.2	1460.6	1433.1	1407.9	1383.4	1358.8
90000 kPa	1616.1	1585.9	1557.2	1529.5	1502.6	1476.4	1451	1427.8	1403.8
100000 kPa	1653	1623.9	1595.8	1569.1	1542.8	1516.8	1492.5	1469.5	1446.4
110000 kPa	1688.6	1660	1632.9	1606.4	1580.5	1555.6	1531.5	1508.7	1486.3
120000 kPa	1723.2	1694.7	1668.4	1642.2	1617.1	1592.3	1569.2	1546.8	1524.6
130000 kPa	1756.3	1728.8	1702.5	1676.9	1652.2	1627.9	1604.7	1583	1561.1
140000 kPa	1788	1760.4	1735.5	1713.3	1685.7	1661.8	1639.3	1617.8	1596.4
150000 kPa	1818.6	1792.3	1766.7	1742.2	1718.3	1694.8	1672.8	1650.9	1630.2

CCCC(C)C [2-methylpentane]
speed of sound [m/s]
Settings	293.15 K	303.15 K	313.15 K	323.15 K	333.15 K	343.15 K	353.15 K	363.15 K	373.15 K
100 kPa	1064.6	1016.5	971.8	927.3	–	–	–	–	–
10000 kPa	1145.5	1102.8	1061.7	1022	982.1	943.2	905	867.4	830.7
20000 kPa	1215.4	1176	1138.5	1101.2	1065.4	1030.2	996.4	962.8	931.1
30000 kPa	1277.6	1240.8	1205.5	1170.8	1137.2	1104.8	1073.6	1042.9	1013
40000 kPa	1334.9	1299.5	1265.9	1233.9	1201.3	1170.9	1141	1112.8	1084.6
50000 kPa	1386.9	1352.6	1321.2	1289.9	1260.2	1230.4	1201.8	1174.7	1148.2
60000 kPa	1434.8	1403	1372.2	1342.1	1313.1	1284.6	1257.8	1231.7	1206.3
70000 kPa	1480.4	1449.6	1419.4	1391.6	1363.4	1335.3	1309.7	1284.1	1259.6
80000 kPa	1523.4	1492.9	1464	1436	1408.6	1381.8	1356.7	1332.7	1309
90000 kPa	1564	1534.6	1506.3	1478.4	1452.5	1426.6	1402.3	1378.4	1354.6
100000 kPa	1602.3	1573.5	1546.3	1519.2	1493.6	1468.3	1444.8	1421.9	1399
110000 kPa	1638.5	1610.7	1584.2	1558.7	1532.6	1508.4	1485.1	1462.6	1440.8
120000 kPa	1674.4	1646.9	1620.7	1595.2	1570	1546.2	1523.3	1501.1	1479.6
130000 kPa	1708.1	1681.6	1655.7	1630.8	1605.9	1582.5	1560	1538.3	1517.1
140000 kPa	1740.8	1714.3	1689.6	1664.2	1640.4	1617.2	1595.2	1573.9	1553
150000 kPa	1771.8	1746.6	1721.4	1696.8	1673	1650.2	1628.8	1607.8	1587.5
